From US20210341448A1, “SCREENING METHOD FOR THERAPEUTIC DRUG OR PROPHYLACTIC DRUG FOR TAUOPATHY AND DIAGNOSTIC METHOD FOR TAUOPATHY” (National Center for Geriatrics and Gerontology, priority 2018, published 2021)

Legend:
[1] = test system: postsynaptic NMDAR and AMPAR; assay: Western blot of NMDA and AMPA receptor amounts on the synapse, brain slices of aging C57BL/6 mice; design: species or system mouse; settings: aging C57BL/6 brain slice, 0.5% Triton X-100-insoluble membrane fraction
Protocol: As the molecule mechanism of NMDAR-LTD, it has been known that the AMPA receptors (hereinafter described as “AMPAR”) and/or the NMDA receptors (NMDAR) are incorporated into a cell by the endocytosis in the postsynaptic membrane caused by the activation of the NMDA receptors. Thus, an analysis was performed on the changes in amount of NMDARs and AMPARs on synapses in the brain slice specimens exposed to the tau oligomer sample and the brain slice specimens not exposed to the tau oligomer sample, prepared by the procedures of the above (2-1) and (2-2).
The brain slice specimens were frozen and disrupted in a 50-fold volume of homogenizing buffer (4 mM of HEPES, 2 mM of EGTA, 0.32 M of sucrose, pH 7.4) using a Teflon® homogenizer. The disrupted tissue solution was centrifuged at 4° C., 1,000×g for 15 minutes to thereby collect the supernatant, and the supernatant was further centrifuged at 4° C., 12,000×g for 15 minutes to thereby collect membrane fractions (pellets). The obtained membrane fractions were dissolved in tris-buffered saline containing 0.5% Triton X-100 (50 mM of Tris, 500 mM of NaCl, pH 7.4) and were centrifuged at 4° C., 20,000×g for 15 minutes. […] The western blot was carried out on the 0.5% Triton X-100-insoluble membrane fraction sample to quantify the AMPA receptor (GluA2 subunit) and the NMDA receptors (NR2a and NR2b subunits). […]

[2] = test system: postsynaptic NMDAR and AMPAR; assay: Western blot of NMDA and AMPA receptor amounts on the synapse, brain slices of tau knockout mice; settings: tau knockout mouse brain slice
Protocol: The brain slice specimens were frozen and disrupted in a 50-fold volume of homogenizing buffer (4 mM of HEPES, 2 mM of EGTA, 0.32 M of sucrose, pH 7.4) using a Teflon® homogenizer. The disrupted tissue solution was centrifuged at 4° C., 1,000×g for 15 minutes to thereby collect the supernatant, and the supernatant was further centrifuged at 4° C., 12,000×g for 15 minutes to thereby collect membrane fractions (pellets). The obtained membrane fractions were dissolved in tris-buffered saline containing 0.5% Triton X-100 (50 mM of Tris, 500 mM of NaCl, pH 7.4) and were centrifuged at 4° C., 20,000×g for 15 minutes. The supernatant was used as a 0.5% Triton X-100-soluble membrane fraction sample and the pellet was used as a 0.5% Triton X-100-insoluble membrane fraction sample. The western blot was carried out on the 0.5% Triton X-100-insoluble membrane fraction sample to quantify the AMPA receptor (GluA2 subunit) and the NMDA receptors (NR2a and NR2b subunits). The antibodies used were an anti-Glu2 antibody (Alomone Labs, #AGC-073) (1:1000 dilution), an anti-NR2A antibody (Alomone Labs, #AGC-002) (1:1000 dilution), and an anti-NR2B antibody (Alomone Labs, #AGC-003) (1:1000 dilution).
In the tau knockout mice, the reduction of NMDARs and AMPARs on the synapse by the exposure of the tau oligomer sample was not observed.

[3] = target: T1, NMDAR (Homo sapiens, UniProt Q05586); assay: Measurement of calcium influx through NMDAR into NT2-N cells; assay type: cell-based
T1 construct: endogenous in cells; host or cells: NT2-N neurons differentiated from NTERA-2 cl.D1 [NT2/D1] cells (ATCC CRL-1973)
Protocol: Cultured neurons expressing NMDARs retaining physiological functions were prepared by the following procedure to evaluate the NMDAR activation ability of the tau oligomer. The NTERA-2 cl.D1[NT2/D1] cells (ATCC CRL-1973) (hereinafter described as “NT2 cell”), which are derived from a human pluripotent embryonic cancer, were adhesively cultured on 10-cm plastic dish in maintenance culture medium (high glucose DMEM (Sigma-Aldrich, D6429), 10% FBS, 100 U/ml penicillin/streptomycin) under the conditions of 37° C. and 5% CO2 for 3 to 4 days until the confluency stage was attained. The NT2 cells were detached using Accutase (Innovative Cell Technologies, #AT104), were passaged, and were maintained over a period of 50 days. The medium was replaced 3 times a week.
The maintenance-cultured NT2 cells were dispersed in a low attachment petri dish (STAR SDish9015, RIKAKEN CO., LTD.) in a concentration of 1.5×10^6 to 2.5×10^6/dish, suspension-cultured under the conditions of 37° C. and 5% CO2 on a shaker (100 rpm), and 1 day later were induced to differentiate by adding 1 μM of all-trans-retinoic acid (abcam), to thereby form spheroids. 14 days later, the spheroids were collected, seeded in a 10-cm dish coated with 5 μg/ml of poly-D-lysin (PDL) (Sigma-Aldrich)/Laminin (LAM) (iMatrix-511, Nippi Inc.) and adhesively cultured under the conditions of 37° C. and 5% CO2. From the following day, the culture was carried out by adding 3 kinds of cell division inhibitors (10 μM of uridine, 10 μM of floxuridine, and 1 μM of AraC). […]
For analysis, 5 to 10 regions of the visual field of the NT2-N cells positioned in the system were manually set and the fluorescence intensities were recorded for each region, for Cal-520, every 1 minute for 1 hour continuously at excitation wavelength 480 nm/fluorescence emission wavelength 520 nm, and for Fluo-8, every 2 seconds for 5 minutes continuously at excitation wavelength 480 nm/fluorescence emission wavelength 520 nm. […]

[4] = test system: NMDA receptor; assay: NMDAR-based sandwich ELISA; assay type: binding, mouse; settings: tau oligomer solution of 10^−11 g/ml or less

increase of intracellular calcium concentration (NMDAR activation ability) ([3]; Cal-520, NT2-N cells, 3 minutes after administration): has the NMDAR activation ability
intracellular calcium concentration ([3]; Fluo-8, NT2-N cells, 100 μl of 0.03 μg/ml in HHBS): increased over time
Substance: tau oligomer: polymer of human tau 2N4R monomers, polymerized with mouse brain extract and ATP, collected as pellets
amount of AMPARs on the postsynaptic site ([1]; GluA2, normalized to aCSF): reduced
amount of NMDARs on the postsynaptic site ([1]; NR2a and NR2b, normalized to aCSF): reduced
reduction of AMPARs on the synapse [2]: not observed
reduction of NMDARs on the synapse [2]: not observed
binding of the tau oligomer to the NMDA receptor [4]: increased in a concentration-dependent manner
